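Each compound was tested at five concentrations against cells in 96-well plates for 48 hours. Here, GI50 denotes the concentration required for 50% inhibition of growth. TGI denotes the concentration required for complete inhibition of growth.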

Assay in all cases: inhibition of tumour cell growth, NCI panel, 48 h
Experiment [1] relates to CCRF-CEM leukemia.
The subject of experiment [2] is NCI-H522 lung.
Experiment [3] deals with SF-539 CNS.
Experiment [4] deals with RXF 393 renal.
Experiment [5] concerns NCI-H460 lung.
For experiment [6], the system named is OVCAR-8 ovarian.
Experiment [7] deals with MALME-3M melanoma.
Experiment [8] deals with UACC-257 melanoma.

As for `C[C@@H]1C[C@H]2CC[C@H](O2)[C@H](C)C(=O)O[C@@H](C)C[C@@H]2CC[C@@H](O2)[C@@H](C)C(=O)O[C@H](C)C[C@H]2CC[C@H](O2)[C@H](C)C(=O)O[C@@H](C)C[C@@H]2CC[C@@H](O2)[C@@H](C)C(=O)O1`, the TGI in experiment [1] is 16.2 µM; in experiment [2], 0.68 µM; in experiment [3], greater than 100 µM; in experiment [4], greater than 100 µM; in experiment [5], greater than 100 µM; in experiment [6] it was greater than 44.6 µM. Besides, the TGI in experiment [7] stood at 2.67 µM; in experiment [8], 0.806 µM.
As for `COc1ccc2sc3c(NCCCN(C)C)nc4ccccc4c3c(=O)c2c1`, the GI50 in experiment [1] is 1570 nM; in experiment [2] it was 1.78 µM; in experiment [3], 1.63 µM; in experiment [4], 1220 nM; in experiment [5], 1.54 µM; in experiment [6] it was 1.7 µM. Further, the values for the GI50 in experiment [7] and in experiment [8] were 1.62 µM and 1.81 µM, respectively. Also, the TGI in experiment [1] was determined as 3.67 µM; in experiment [2] it was 3.46 µM; in experiment [3], 3.06 µM; in experiment [4], 2.53 µM; in experiment [5], 3.03 µM; in experiment [6], 3.62 µM. For the same compound, the results for the TGI in experiment [7] and in experiment [8] were 3.18 µM and 3.49 µM, respectively.
Consider `CC(CCC(=O)O)[C@H]1CCC2[C@@H]3CC[C@@H]4CC(O)CC[C@]4(C)C3CC[C@@]21C` (some centres not stated), for which the GI50 in experiment [1] is 21900 nM; in experiment [2], 68.1 µM; in experiment [3] it was 26 µM; in experiment [4] it was 46900 nM; in experiment [5], 31 µM; in experiment [6], 50 µM. Besides, the GI50 is greater than 100 µM in experiment [7] and 27.7 µM in experiment [8]. Moreover, the TGI in experiment [1] was 85.3 µM; in experiment [2], greater than 100 µM; in experiment [3], 72.4 µM; in experiment [4], greater than 100 µM; in experiment [5] it was 97.4 µM; in experiment [6] it was greater than 100 µM. Further, the TGI in experiment [7] and in experiment [8] was greater than 100 µM each time.
As for `COc1cc2c(c(OC)c1)C1c3ccccc3NC(=O)N1CC2` (configuration not stated), the GI50 in experiment [1] was 2670 nM; in experiment [2], 2.97 µM; in experiment [3], 1.7 µM; in experiment [4] it was 2380 nM; in experiment [5] it was 3.7 µM; in experiment [6], 5.01 µM. The results for the GI50 in experiment [7] and in experiment [8] were 10.4 µM and 51 µM, respectively. Besides, the TGI in experiment [1] was greater than 100 µM; in experiment [2], 11.8 µM; in experiment [3] it was 7.26 µM; in experiment [4] it was 5.6 µM; in experiment [5], greater than 100 µM; in experiment [6], greater than 100 µM. Besides, the values for the TGI in experiment [7] and in experiment [8] were 67.8 µM and greater than 100 µM, respectively.
Take `Cc1cc(N(CCCl)CCCl)ccc1C=Nc1ccc(-c2csc(Cc3ccccc3)n2)cc1`: the GI50 in experiment [1] was 3010 nM; in experiment [2], 11.7 µM; in experiment [3], 5.41 µM; in experiment [4], 14600 nM; in experiment [5], 0.475 µM; in experiment [6], 10.2 µM. Also, the GI50 in experiment [7] was 16.4 µM; in experiment [8], 3.36 µM. For the same compound, the TGI is greater than 86.3 µM in experiment [1]; 27 µM in experiment [2]; 29.4 µM in experiment [3]; 71.3 µM in experiment [4]; 23.6 µM in experiment [5]; 46.2 µM in experiment [6]. Further, the TGI was found to be 33.2 µM in experiment [7] and 29.3 µM in experiment [8].
As to `OC(c1cc(-c2ccccc2)nc2ccc(Cl)cc12)C1CCCCN1` (configuration not stated), the GI50 is 2590 nM in experiment [1]; 2.11 µM in experiment [2]; 1.84 µM in experiment [3]; 2010 nM in experiment [4]; 1.89 µM in experiment [5]; 2.55 µM in experiment [6]. Besides, the GI50 in experiment [7] was 1.99 µM; in experiment [8], 2.23 µM. Besides, the TGI was 7.69 µM in experiment [1]; 4.53 µM in experiment [2]; 3.52 µM in experiment [3]; 3.84 µM in experiment [4]; 3.61 µM in experiment [5]; 6.38 µM in experiment [6]. Also, the TGI in experiment [7] was determined as 3.88 µM; in experiment [8] it was 4.13 µM.
Regarding `COc1ccc(-c2nn3c(-c4cc(F)c(Cl)cc4Cl)nnc3s2)cc1`, the GI50 in experiment [1] is 28800 nM; in experiment [2] it was 17 µM; in experiment [3], 20.8 µM; in experiment [4] it was 28700 nM; in experiment [5], 22.4 µM; in experiment [6] it was 22 µM. For the same compound, the GI50 in experiment [7] was 26.8 µM; in experiment [8], 32.2 µM. Also, the TGI in experiment [1] was greater than 100 µM; in experiment [2], 73.1 µM; in experiment [3], 44.4 µM; in experiment [4] it was 97.2 µM; in experiment [5] it was 86.5 µM; in experiment [6], 62.1 µM. The TGI in experiment [7] and in experiment [8] was greater than 100 µM each time.
As to `COC(=O)[C@H](C[C@H](Cc1ccccc1)NC(=O)c1csc([C@@H](C[C@H](C(C)C)N(C)C(=O)[C@@H](NC(=O)[C@H]2CCCCN2C)C(C)C)OC(C)=O)n1)NC(=O)OCc1ccccc1`, the GI50 is less than 0.9 nM in experiment [1]; less than 0.0009 µM in experiment [2]; less than 0.0009 µM in experiment [3]; less than 0.9 nM in experiment [4]; less than 0.0009 µM in experiment [5]; less than 0.0009 µM in experiment [6]. Moreover, the GI50 in experiment [7] is less than 0.0009 µM; in experiment [8], 0.0349 µM. The TGI in experiment [1] was greater than 9 µM; in experiment [2], 0.0525 µM; in experiment [3], 0.00367 µM; in experiment [4], greater than 9 µM; in experiment [5] it was greater than 9 µM; in experiment [6], greater than 9 µM. Moreover, the TGI came to 2.67 µM in experiment [7] and 2.78 µM in experiment [8].
For `CC[C@@H](C(=O)O)C1CC[C@H](C)C([C@@H](C)[C@H](O)[C@H](C)C(=O)[C@H](CC)C2O[C@]3(C=C[C@@H](O)[C@]4(CC[C@@](C)(C5CC[C@](O)(CC)[C@H](C)O5)O4)O3)[C@H](C)C[C@@H]2C)O1` (some centres not stated), the GI50 was 619 nM in experiment [1]; 0.0785 µM in experiment [2]; 0.309 µM in experiment [3]; 289 nM in experiment [4]; 0.383 µM in experiment [5]; 1.21 µM in experiment [6]. The GI50 in experiment [7] is 0.226 µM; in experiment [8], 0.293 µM. For the same compound, the TGI in experiment [1] turned out to be 20.5 µM; in experiment [2], 1.78 µM; in experiment [3] it was 3.9 µM; in experiment [4] it was 3.76 µM; in experiment [5] it was 10.5 µM; in experiment [6], 37.4 µM. Also, the TGI worked out at 1.37 µM in experiment [7] and 5.88 µM in experiment [8].
Turning to `CCCCCCCCCCCCCCCCN1CC2CCCCC2C1` (configuration not stated), the GI50 is 2430 nM in experiment [1]; 4.4 µM in experiment [2]; 5.52 µM in experiment [3]; 2300 nM in experiment [4]; greater than 100 µM in experiment [5]; 4.18 µM in experiment [6]. Moreover, the GI50 is 16.9 µM in experiment [7] and 12.6 µM in experiment [8]. Further, the TGI in experiment [1] is 6.56 µM; in experiment [2] it was 17 µM; in experiment [3] it was 18.6 µM; in experiment [4], 6.78 µM; in experiment [5] it was greater than 100 µM; in experiment [6], 17.6 µM. In addition, the TGI in experiment [7] is 35.3 µM; in experiment [8] it was 27 µM.
For `CCc1nccc2c1nc(-c1nonc1N)n2CC`, the GI50 in experiment [1] is greater than 25000 nM; in experiment [2], greater than 17.7 µM; in experiment [3], greater than 25 µM; in experiment [4], 13600 nM; in experiment [5], greater than 25 µM; in experiment [6], greater than 25 µM. Moreover, the GI50 in experiment [7] and in experiment [8] was greater than 25 µM in each case. Moreover, the TGI in experiment [1], in experiment [2], in experiment [3], in experiment [4], in experiment [5] and in experiment [6] was greater than 25 µM each time. Moreover, the TGI in experiment [7] and in experiment [8] was greater than 25 µM in each case.
As for `CN(C)CCCNC(CC#N)CCC#N` (configuration not stated), the TGI in experiment [1], in experiment [2], in experiment [3], in experiment [4], in experiment [5] and in experiment [6] was greater than 10 µM throughout. In addition, the TGI in experiment [7] and in experiment [8] was greater than 10 µM each time.
For the compound `Nc1ccccc1C#C/C=C\C#Cc1cccs1`, the GI50 is 295 nM in experiment [1]; 6.84 µM in experiment [2]; 5.6 µM in experiment [3]; 33800 nM in experiment [4]; 13.7 µM in experiment [5]; 25 µM in experiment [6]. In addition, the values for the GI50 in experiment [7] and in experiment [8] were 5.38 µM and 23.2 µM, respectively. Further, the TGI in experiment [1] was 2.2 µM; in experiment [2] it was 31.6 µM; in experiment [3] it was 17.8 µM; in experiment [4], greater than 83.9 µM; in experiment [5], 42.5 µM; in experiment [6], greater than 83.4 µM. Also, the values for the TGI in experiment [7] and in experiment [8] were 29.2 µM and greater than 57.8 µM, respectively.

The values are drawn from PubChem BioAssay (NCI).
